Literature values as cited in PMC11247654 (ACS Medicinal Chemistry Letters, 2024).

Key:
[1] = neutropenic mouse thigh infection assay

Substance: Leu10-isobactin A
- In vivo activity (active dose) [1]: 3 to 10 mg/kg
- In vitro activity against MRSA (MRSA): 0.5 µg/mL
